Read-outs that look alike come from different tables or passages of the source.
How the values were obtained:
Format in all cases: cell-based
[1] = system: Hela (human cervical tumor); experiment: MTT proliferation inhibition, Hela cells; conditions: Hela cell; for Inhibitory rate (%) / inhibition at 120 µM: 120 μmol/L; for inhibition at 7.5 µM / inhibition at 15 µM / inhibition at 30 µM / inhibition at 60 µM / inhibition at 120 µM / inhibition at 240 µM / inhibition at 480 µM / inhibition at 960 µM / IC50: Homo sapiens; for inhibition at 7.5 µM / inhibition at 15 µM / inhibition at 30 µM / inhibition at 60 µM / inhibition at 120 µM / inhibition at 240 µM / inhibition at 480 µM / inhibition at 960 µM: HeLa, read-out: Inhibitory rate (%); for inhibition at 7.5 µM: 7.5 μmol/L; for inhibition at 15 µM: 15 μmol/L; for inhibition at 30 µM: 30 μmol/L; for inhibition at 60 µM: 60 μmol/L; for inhibition at 240 µM: 240 μmol/L; for inhibition at 480 µM: 480 μmol/L; for inhibition at 960 µM: 960 μmol/L; for IC50: MTT, Bliss method
Description: (§1) The Silica Gel Column Chromatography and Countercurrent Chromatography preparation techniques were used to obtain Friedelin monomer extracted from EZR2002 for the sake of evaluating its anti-tumor activity further. The purity of this monomer determined by GC-MS analysis was 90.5%.
(§2) A375 (human malanoma), L929 (mouse lung epithelial tumor), Hela (human cervical tumor) and THP-1 (human macrophage tumor) cell lines were used for active filtration test in this experiment. Among these cell lines, A375, L929 and Hela were adherent cells while THP-1 was a kind of suspended cell.
(§3) All cells were maintained in the RPMI-1640 culture medium supplemented with 10% fetal calf serum, penicillin (100 U/mL), streptomycin (100 μg/mL) and 0.2% NaHCO3. These supplements were dissolved in deionized water and 0.22 μm filtration membrane was used for filter sterilization. The fetal calf serum was inactivated 30 min at 56° C. prior to an experiment. Cells were cultured in a humidified incubator of 5% CO2 at 37° C.
(§4) A375, L929 and Hela cells in logarithmic growth phases were seeded at a cell density of approximately 5×10^4 cells/mL in 96 pore plates (100 μL/well). Furthermore, THP-1 cell was seeded at a cell density of approximately 1×10^5 cells/mL because it was smaller than others. Samples were added in suspended cells after culturing 4 h and in adherent cells after culturing 12 h. Friedelin was dissolved in DMSO in advance and then in the culture medium with the ultrasonic treatment, where the final concentration of the solvent in the culture medium was <0.1% (v/v). Sample was added for 7.5, 15, 30, 60, 120, 240, 480 and 960 μmol/L. Each level had four parallel pores and a negative control. The cells were incubated for 24 and 48 h and then 15 μL/well MTT solvent (5 mg/mL) was added.
(§5) The cells were incubated for 48 h, followed by centrifugation at 1500 rpm for 5 min. The supernatant was removed and 150 μL/well DMSO was added, followed by micro-vibrator shocking for 10 min and crystal dissolving completely. The absorbance (OD value) was measured by enzyme-labeled meter at 492 nm. Furthermore, the inhibitory rate of cell proliferation and the IC50 value of friedelin were counted by using Bliss method.
(§6) The de-methyl-cantharidin was taken as the positive control and the inhibitory rate of A375, L929 and Hela cells were measured by adding de-methyl-cantharidin (120 μmol/L) for 24 and 48 h (Table 8). Furthermore, the corresponding data of Friedelin were counted.

[2] = system: THP-1 (human macrophage tumor); experiment: MTT proliferation inhibition, THP-1 cells; conditions: THP-1 cell; for inhibition at 7.5 µM: 7.5 μmol/L; for inhibition at 7.5 µM / inhibition at 15 µM / inhibition at 30 µM / inhibition at 60 µM / inhibition at 120 µM / inhibition at 240 µM / inhibition at 480 µM / inhibition at 960 µM: read-out: Inhibitory rate (%); for inhibition at 15 µM: 15 μmol/L; for inhibition at 30 µM: 30 μmol/L; for inhibition at 60 µM: 60 μmol/L; for inhibition at 120 µM: 120 μmol/L; for inhibition at 240 µM: 240 μmol/L; for inhibition at 480 µM: 480 μmol/L; for inhibition at 960 µM: 960 μmol/L; for IC50: MTT, Bliss method
Description: as §1, §2, §3, §4, §5

[3] = system: L929 (mouse lung epithelial tumor); experiment: MTT proliferation inhibition, L929 cells; conditions: L929 cell; for Inhibitory rate (%) / inhibition at 120 µM: 120 μmol/L; for inhibition at 7.5 µM / inhibition at 15 µM / inhibition at 30 µM / inhibition at 60 µM / inhibition at 120 µM / inhibition at 240 µM / inhibition at 480 µM / inhibition at 960 µM / IC50: Mus musculus; for inhibition at 7.5 µM: 7.5 μmol/L; for inhibition at 7.5 µM / inhibition at 15 µM / inhibition at 30 µM / inhibition at 60 µM / inhibition at 120 µM / inhibition at 240 µM / inhibition at 480 µM / inhibition at 960 µM: read-out: Inhibitory rate (%); for inhibition at 15 µM: 15 μmol/L; for inhibition at 30 µM: 30 μmol/L; for inhibition at 60 µM: 60 μmol/L; for inhibition at 240 µM: 240 μmol/L; for inhibition at 480 µM: 480 μmol/L; for inhibition at 960 µM: 960 μmol/L; for IC50: MTT, Bliss method
Description: as §1, §2, §3, §4, §5, §6

[4] = system: A375 (human malanoma); experiment: MTT proliferation inhibition, A375 cells; conditions: A375 cell; for inhibition at 7.5 µM / inhibition at 15 µM / inhibition at 30 µM / inhibition at 60 µM / inhibition at 120 µM / inhibition at 240 µM / inhibition at 480 µM / inhibition at 960 µM / IC50: Homo sapiens; for inhibition at 7.5 µM: 7.5 μmol/L; for inhibition at 7.5 µM / inhibition at 15 µM / inhibition at 30 µM / inhibition at 60 µM / inhibition at 120 µM / inhibition at 240 µM / inhibition at 480 µM / inhibition at 960 µM: read-out: Inhibitory rate (%); for inhibition at 15 µM: 15 μmol/L; for inhibition at 30 µM: 30 μmol/L; for inhibition at 60 µM: 60 μmol/L; for inhibition at 240 µM: 240 μmol/L; for inhibition at 480 µM: 480 μmol/L; for inhibition at 960 µM: 960 μmol/L; for IC50: A-375, MTT, Bliss method
Description: as §1, §2, §3, §4, §5, §6

Compound: C[C@H]1C(=O)CC[C@@H]2[C@]1(C)CC[C@H]1[C@@]2(C)CC[C@@]2(C)[C@@H]3CC(C)(C)CC[C@]3(C)CC[C@]12C [Friedelin, friedelin]
- Inhibitory rate (%) ([1]; 24 h): 71.6%
- Inhibitory rate (%) ([1]; 48 h): 86.0%
- inhibition at 7.5 µM ([1]; 24 h, 24 h): 35%
- inhibition at 15 µM ([1]; 24 h, 24 h): 34.7%
- inhibition at 30 µM ([1]; 24 h, 24 h): 33.3%
- inhibition at 60 µM ([1]; 24 h, 24 h): 43.4%
- inhibition at 120 µM ([1]; 24 h, 24 h): 71.6%
- inhibition at 240 µM ([1]; 24 h, 24 h): 88.2%
- inhibition at 480 µM ([1]; 24 h, 24 h): 88.1%
- inhibition at 960 µM ([1]; 24 h, 24 h): 73.8%
- inhibition at 7.5 µM ([1]; 48 h, 48 h): 20%
- inhibition at 15 µM ([1]; 48 h, 48 h): 17.2%
- inhibition at 30 µM ([1]; 48 h, 48 h): 24.6%
- inhibition at 60 µM ([1]; 48 h, 48 h): 41.4%
- inhibition at 120 µM ([1]; 48 h, 48 h): 86%
- inhibition at 240 µM ([1]; 48 h, 48 h): 99.5%
- inhibition at 480 µM ([1]; 48 h, 48 h): 98%
- inhibition at 960 µM ([1]; 48 h, 48 h): 92%
- IC50 ([1]; 24 h): 61.2 µM
- IC50 ([1]; 48 h): 64.7 µM
- inhibition at 7.5 µM ([2]; 24 h): 4.89%
- inhibition at 15 µM ([2]; 24 h): 0%
- inhibition at 30 µM ([2]; 24 h): 3.04%
- inhibition at 60 µM ([2]; 24 h): 45.2%
- inhibition at 120 µM ([2]; 24 h): 58.8%
- inhibition at 240 µM ([2]; 24 h): 68.5%
- inhibition at 480 µM ([2]; 24 h): 74.1%
- inhibition at 960 µM ([2]; 24 h): 70.8%
- IC50 ([2]; 24 h): 85.1 µM
- inhibition at 7.5 µM ([2]; 48 h): 8.6%
- inhibition at 15 µM ([2]; 48 h): 0%
- inhibition at 30 µM ([2]; 48 h): 7.57%
- inhibition at 60 µM ([2]; 48 h): 52.6%
- inhibition at 120 µM ([2]; 48 h): 77.3%
- inhibition at 240 µM ([2]; 48 h): 95%
- inhibition at 480 µM ([2]; 48 h): 92.9%
- inhibition at 960 µM ([2]; 48 h): 82.5%
- IC50 ([2]; 48 h): 58 µM
- Inhibitory rate (%) ([3]; 24 h): 37.6%
- Inhibitory rate (%) ([3]; 48 h): 81.1%
- inhibition at 7.5 µM ([3]; L929, 24 h, 24 h): 5.42%
- inhibition at 15 µM ([3]; L929, 24 h, 24 h): 10.4%
- inhibition at 30 µM ([3]; L929, 24 h, 24 h): 13.2%
- inhibition at 60 µM ([3]; L929, 24 h, 24 h): 22.7%
- inhibition at 120 µM ([3]; L929, 24 h, 24 h): 37.6%
- inhibition at 240 µM ([3]; L929, 24 h, 24 h): 52.3%
- inhibition at 480 µM ([3]; L929, 24 h, 24 h): 48.1%
- inhibition at 960 µM ([3]; L929, 24 h, 24 h): 38.9%
- inhibition at 7.5 µM ([3]; L929, 48 h, 48 h): 17.3%
- inhibition at 15 µM ([3]; L929, 48 h, 48 h): 21.6%
- inhibition at 30 µM ([3]; L929, 48 h, 48 h): 38.8%
- inhibition at 60 µM ([3]; L929, 48 h, 48 h): 66.8%
- inhibition at 120 µM ([3]; L929, 48 h, 48 h): 81.1%
- inhibition at 240 µM ([3]; L929, 48 h, 48 h): 99.5%
- inhibition at 480 µM ([3]; L929, 48 h, 48 h): 98.2%
- inhibition at 960 µM ([3]; L929, 48 h, 48 h): 89.9%
- IC50 ([3]; 24 h): 665 µM
- IC50 ([3]; 48 h): 36.9 µM
- Inhibitory rate (%) ([4]; 48 h, 120 μmol/L): 88.6%
- inhibition at 7.5 µM ([4]; A-375, 24 h, 24 h): 0%
- inhibition at 15 µM ([4]; A-375, 24 h, 24 h): 6.43%
- inhibition at 30 µM ([4]; A-375, 24 h, 24 h): 0.43%
- inhibition at 60 µM ([4]; A-375, 24 h, 24 h): 14.1%
- inhibition at 120 µM ([4]; A-375, 24 h, 24 h, 120 μmol/L): 36.7%
- inhibition at 240 µM ([4]; A-375, 24 h, 24 h): 44.8%
- inhibition at 480 µM ([4]; A-375, 24 h, 24 h): 63.3%
- inhibition at 960 µM ([4]; A-375, 24 h, 24 h): 60.4%
- inhibition at 7.5 µM ([4]; A-375, 48 h, 48 h): 0.51%
- inhibition at 15 µM ([4]; A-375, 48 h, 48 h): 6.29%
- inhibition at 30 µM ([4]; A-375, 48 h, 48 h): 17.2%
- inhibition at 60 µM ([4]; A-375, 48 h, 48 h): 44.4%
- inhibition at 120 µM ([4]; A-375, 48 h, 48 h, 120 μmol/L): 88.6%
- inhibition at 240 µM ([4]; A-375, 48 h, 48 h): 100%
- inhibition at 480 µM ([4]; A-375, 48 h, 48 h): 96.1%
- inhibition at 960 µM ([4]; A-375, 48 h, 48 h): 89.8%
- IC50 ([4]; 24 h): 357 µM
- IC50 ([4]; 48 h): 61.5 µM
